Experimental data taken from patent publication US6552066B1, “Protein tyrosine kinase inhibitors for treating osteoarthritis” (priority 1995, dated 2003).
Read-outs that look alike come from different tables or passages of the source.

Key:
[1] = test system: IL-1-induced aggrecan degradation; assay: Aggrecan degradation in IL-1-stimulated chondrocytes, 2-B-6 antibody immunoblot; type: cell-based, bovine; settings: for intensity of staining (total amount of PG fragments), 2-B-6: relative to PKA, PKC and calmodulin-dependent kinase inhibitor samples
Method: Primary bovine articular chondrocytes from calf adio-carpal joints were isolated and cultured as above in Example 1, up to and including the addition of the following protein kinase inhibitors: 1) Protein kinase A (PKA) inhibitors; 0.5 μM H88 (Seikagaku Corp.), 0.5 μM H89 (Seikagaku Corp.); 2) Protein kinase C (PKC) inhibitors; 0.5 μM Calphostin C (Calbiochem), 1.0 μM Chelerythrine (Calbiochem); 3) CA^2+/Calmodulin Kinase II inhibitor; 5.0 μM KN93 (Seikagaku Corp.); 4) Protein tyrosine kinase (PTK) inhibitors; 50 μM Genistein (Calbiochem), 10 μM Herbimycin A (Calbiochem). After the 24 hour IL-1α incubation, the media of each sample was measured, and collected on ice in the presence of the protease inhibitors EGTA (5 mM), Pefaloc (1 mM), pepstatin (1 μg/ml), and NEM (5 mM). Media were concentrated approximately 40 fold using a Centriprep-10 ultrafiltration device (Amicon).
Proteoglycans contained within the media were deglycosylated by incubations with chondroitinase ABC, keratinase, and keratinase II following the procedure of Sandy et al. J Biol Chem (1991) 266:8683-8685 and Sandy et al. J. Clin Invest (1992) 89:1512-1516. Samples of deglycosylated media were subjected to 4-15% gradient SDS-PAGE and transferred to nitrocellulose membranes (2 ml-worth and 6 ml-worth of media were used for 2-B-6 and BC-3 immunoblotting, respectively.) The membranes were blocked with 1% nonfat dry milk and 1% BSA, and then incubated in either the BC-3 or 2-B-6 primary monoclonal antibody for 1 hour. The 2-B-6 antibody detects chondroitin sulfate stubs on chondroitinase-treated proteoglycans (both intact and degradation products. BC-3 antibody detects “ARGSV . . . ,” the new N-terminus (“neoepitope”) resulting from cleavage of aggrecan interglobular domain at Glu^373/ALA^374 by aggrecanase. It is of note to mention that the BC-3 and 2-B-6 antibodies were of low sensitivity. Following 3 washes, membranes were incubated in either alkaline phosphatase-conjugated goat anti-mouse (for the 2-B-6 blot) or biotinylated goat anti-mouse (for the BC-3 blot); followed by alkaline phosphatase-conjugated streptavidin/biotin complex). After washing 3 times, immunoreactive proteins were detected using NBT/BCIP (Sigma) colorimetric substrate.
The 2-B-6 antibody detected intact aggrecan (the uppermost band) and several aggrecan degradation products, along with decorin and biglycan (50K doublet), in the IL-1-treated media samples. […] The bands in the IL-1 sample that are seen at 230K, 200K, 130K and 100K have been previously identified by sequence analysis to result from IL-1-induced “aggrecanase” cleavage.
A repeat of the Western immunoblotting experiment using 2-B-6 antibodies was performed. Furthermore, additional inhibitors from four enzyme families were examined: 1) Protein tyrosine kinase (PTK) inhibitors; 1 μM Tryphostin AG 1296 (Calbiochem), 50 μM Tyrphostin A25 (AG 82) (Calbiochem), 50 μM Tyrphostin AG 126 (Calbiochem), 50 μM Tyrphostin B56 (AG 556) (Calbiochem), 20 μM DAPH (Calbiochem); 2) Guanylate cyclase inhibitor; 10 μM LY-83583 (Calbiochem); 3) Casein kinase I inhibitor; 20 μM CKI-7 (Seikagaku Corp.); and 4) Protein kinase G (PKG) and PKA inhibitor; 5.0 μM H89.

[2] = test system: IL-1 induced release of 35S-labelled proteoglycans from chondrocytes; assay: Chondrocyte cell culture matrix breakdown assay (IL-1 induced 35S release); type: cell-based, calf (bovine); settings: for inhibition at 50 µM / inhibition at 10 µM: Bos taurus, Chondrocyte
Method: A cell culture assay was used to measure the ability of the test compounds to slow the degradation of the extracellular matrix by a metalloproteinase. This assay measured the amount ^35S released from chondrocytes grown in a media with ^35S labeled sodium sulfate. The cell culture assay was carried out as follows:
Two or three 1 to 3 week old calf joints were obtained from an abattoir. The proximal end of the shank was about 4-5′ long to facilitate immobilization in the holder. The joint was kept cool and transported on ice. The exterior of the intact joints was washed well with a suitable anti-microbial soap, rinsed clean with warm water, rinsed in betadine and then finally rinsed with 70% ethanol. Up to this point all steps were done in a manner to ensure that the joint was kept as clean as possible. All subsequent steps were performed in a sterile field (i.e., in a Edgeguard laminar flow tissue culture hood). The joint was immobilized and the synovial fluid was aspirated with a needle and syringe. The joint was then cut open to expose the articular cartilage using a #21 scalpel. Using locking hemostats, forceps and a #15 scalpel, the cartilage was excised in full thickness pieces. Care was taken not to cut too deep into the subchondral bone to prevent bleeding. The cartilage pieces were placed into a 50 mL centrifuge tube containing 25 mL of Delbecco's phosphate buffered saline (D-PBS) supplemented with 1% antibiotic solution (penicillin, streptomycin and fungizone; GIBCO/BRL). The slices from each joint were then placed into separate 50 mL centrifuge tubes. The D-PBS was decanted and replaced with 25 mL of fresh D-PBS supplemented with antibiotics and subsequently agitated gently.
The cartilage pieces were transferred to a fresh 50 mL centrifuge tube and rinsed once more with 25 mL of D-PBS minus antibiotics. An enzymatic digestion solution containing 1 mg/mL of hyaluronidase in serum-free 1:1 DMEM/Ham's F-12 (DMEM/F12) was prepared. This solution was filter sterilized with 0.22 mm Milex-GV filter and kept on ice until ready to use. The cartilage pieces were digested with approximately 5 mL of hyaluronidase solution per joint for 2×15 minutes at 37° C. in the 50 mL centrifuge tube with gentle agitation at the 15 minute mark. This procedure removed residual hyaluronic acid from the surface of the chips. The enzymatic digestion solution was then aspirated and the cartilage pieces were rinsed with 25 mL of D-PBS.
A second enzymatic digestion solution containing 2.5 mg trypsin and 2 mg collagenase P per mL serum-free DMEM/F12 was prepared. This solution was also filter sterilized with a 0.22 mm Millex-GV filter and kept on ice until ready to use. The cartilage pieces were digested with approximately 5 mL of trypsin: collagenase solution per joint for 2×15 minutes at 37° C. in the 50 mL centrifuge tube with gentle agitation at the 15 minute mark. This procedure removed the synovial fibroblasts and any adherent connective tissue from the surface of the chips. The enzymatic digestion solution was then carefully removed and saved and the cartilage pieces were rinsed with 25 mL of D-PBS.
A third enzymatic solution containing 2 mgs of collagenase P (BMB) per mL serum-free DMEM/F12 was prepared. This solution was filter sterilized with a 0.22 mm Millex-GV filter and kept on ice until ready to use. The pre-digested cartilage pieces were finally digested with approximately 20 mL of enzymatic digestion solution per joint for 5-6 hours at 37° C. in a Bellco stirring digestion flask, at which point the cartilage was fully digested away.
The enzymes in the synovial fibroblast and chondrocyte digest were neutralized by addition of an equal volume of DMEM/F12 supplemented with 5% fetal bovine serum. Fibroblasts were plated in DMEM at a cellular density of 6.6×10^3 cells per cm^2. […]

For `O=C1NC(=O)c2cc(Nc3ccccc3)c(Nc3ccccc3)cc21` [DAPH, 4,5-dianilinophthalimide], the “inhibition of IL-1-induced aggrecan degradation, 2-B-6” value (“inhibition … 2-B-6” below) ([1]; 20 μM, repeat experiment) was “moderately strong inhibition”, the “percent inhibition of IL-1 induced 35S release” value (“percent inhibition” below) ([2]; 2 μM, repeated assay) was “no inhibition” and the “percent inhibition” value ([2]; 20 μM, repeated assay) was “no inhibition”.

For `O=c1c(-c2ccc(O)cc2)coc2cc(O)cc(O)c12` [Genistein], the “level of the 230K aggrecan degradation product, 2-B-6” value ([1]; 50 μM) was “significantly reduce”, the “levels of the uppermost band (intact aggrecan), 2-B-6” value ([1]; 50 μM) was “increased” and the “intensity of staining (total amount of PG fragments), 2-B-6” value ([1]; 50 μM) was “reduced”. For the same compound, the “inhibition … 2-B-6” value ([1]; 50 μM, repeat experiment) was “partial inhibition”, the inhibition at 50 µM ([2]; 50 μM, first experiment, 1 ng/ml rhIL-1α, read-out: inhibitory effect on IL-1 induced release of 35S-labelled proteoglycans) was 75 to 100% and the inhibition at 50 µM ([2]; 50 μM, repeated assay, read-out: percent inhibition of IL-1 induced 35S release) was 58%.

In the case of `CO[C@H]1[C@@H](OC)C[C@H](C)[C@@H](OC)C2=CC(=O)C=C(NC(=O)/C(C)=C/C=C\[C@H](OC)[C@@H](OC(N)=O)/C(C)=C/[C@@H]1C)C2=O` [Herbimycin A], the “level of the 230K aggrecan degradation product, 2-B-6” value ([1]; 10 μM) is reported as “significantly reduce”, the “levels of the uppermost band (intact aggrecan), 2-B-6” value ([1]; 10 μM) is reported as “increased” and the “intensity of staining (total amount of PG fragments), 2-B-6” value ([1]; 10 μM) is reported as “reduced”. It also gave an inhibition at 10 µM ([1]; Bos taurus, Chondrocyte, 10 μM, repeat experiment) of roughly 100%, an inhibition at 10 µM ([2]; first experiment, 1 ng/ml rhIL-1α, read-out: inhibitory effect on IL-1 induced release of 35S-labelled proteoglycans) of 75 to 100% and an inhibition at 10 µM ([2]; repeated assay, read-out: percent inhibition of IL-1 induced 35S release) of 89%.

With `N#CC(C#N)=Cc1cc(O)c(O)c(O)c1` [Tyrphostin AG 82] the “inhibition … 2-B-6” value ([1]; 50 μM, repeat experiment) was “moderate inhibition” and the “percent inhibition” value ([2]; 50 μM, repeated assay) was 40%.

`N#CC(C#N)=Cc1ccc([N+](=O)[O-])c(O)c1` [Tyrphostin AG 126] was tested, and the “inhibition … 2-B-6” value ([1]; 50 μM, repeat experiment) was “no inhibitory effect” and the “percent inhibition” value ([2]; 50 μM, repeated assay) was “no inhibition”.

`N#C/C(=C\c1ccc(O)c(O)c1)C(=O)NCCCCc1ccccc1` [Tyrphostin AG 556] was tested, and the “inhibition … 2-B-6” value ([1]; 50 μM, repeat experiment) was 100% and the “percent inhibition” value ([2]; 50 μM, repeated assay) was 100%.
